Patent US6709849B2, “Dietary supplements for regulating male hormone” (priority 2002, dated 2004)

Tests used:
[1] = system: castrated male Wistar rats; assay: Growth of prostate, seminal vesicle and glandulae preputiales in castrated Wistar rats (wet weight); assay type: in vivo, rat; conditions: daily for 14 days, sacrificed 24 hours after last administration, yeast 3 ml daily intragastric, testosterone propionate 25 mg/kg daily i.m.
Experimental: (§1) The activated yeast compositions used in the following examples were prepared as described above, using Saccharomyces cerevisiae Hansen AS2.504, cultured in the presence of an alternating electric field having the electric field frequency and field strength exemplified in the parentheses following the recommended ranges listed in Section IV, supra. Control (i.e., untreated) yeast compositions were those prepared in the same manner as described in Section VI, supra, except that the yeast cells were cultured in the absence of EMFs. Unless otherwise indicated, the yeast compositions and the corresponding controls were administered to the animals by intragastric feeding.
To test the ability of the EMF-treated AS2.504 cells to regulate male hormone, twenty-four healthy male Wistar rats (about 50 g body weight, 20 days old) were selected. Under ether anesthesia, both testes of each rat were removed under sterile conditions. The castrated rats were then randomly divided into four equal groups. The activated yeast composition was administered to Group A rats at a dose of 3 ml daily continuously for 14 consecutive days. […]
Each rat was sacrificed 24 hours after the last administration of the composition of interest. […] The wet weight of the prostate and seminal vesicle was recorded (Table 2). […] The wet weight of the removed glandulae preputiales was also recorded (Table 2).

[2] = system: castrated male NIH-grade mice; assay: Growth of seminal vesicle and glandulae preputiales in castrated mice (weight); assay type: in vivo, mouse; conditions: 7 days, yeast 1.5 ml/dose twice daily intragastric, testosterone propionate 20 mg/kg i.m. every other day
Experimental: as §1
Forty male NIH-grade castrated mice (about 25-30 g each) were randomly divided into four equal groups. Three days after castration, the activated yeast composition was administered to each of the Group A mice twice daily at 1.5 ml/dose for seven consecutive days. The control yeast composition was administered to each of the Group B mice at the same daily dosage for seven consecutive days. Testosterone propionate was injected intramuscularly to each of the Group C mice in the buttocks at 20 mg/kg every other day, i.e., on days 1, 3, 5, and 7, for a total of 7 days. Saline was orally administered to each of the Group D […] twice daily at 1.5 ml/dose for seven consecutive days. […]

CCC(=O)O[C@H]1CC[C@H]2[C@@H]3CCC4=CC(=O)CC[C@]4(C)[C@H]3CC[C@]12C [testosterone propionate, Testosterone propionate]
Glandulae Preputiales (wet weight) [1]: 98.6 ± 15.8
Prostate and Seminal Vesicle (wet weight) [1]: 91.5 ± 12.8
Glandulae Preputiales (mg/100 g body weight) [2]: 323.7 ± 50.6 mg/100 g body weight
Seminal Vesicle (mg/100 g body weight) [2]: 268.2 ± 56.2 mg/100 g body weight
